The pIC50 is −log10 of the IC50, conventionally taken in molar units. A low value points to a large IC50.

The test system of data set [1] is MDA-MB-231 ALDH+ breast cancer stem-like cells. Briefly: Mouse xenograft of MDA-MB-231 ALDH+ breast cancer stem-like cells. Conditions: 5 mg/kg IP daily. It is filed as in vivo, NOD/SCID mice. The procedure: All animal studies were conducted in accordance with the principles and standard procedures approved by IACUC at the Research Institute at Nationwide Children’s Hospital and the University Committee on the Use and Care of Animals at the University of Michigan. ALDH^+ subpopulations of MDA-MB-231 and ALDH^+/CD44^+/CD24^− subpopulations of SUM-159 breast cancer cells (1×10^5) respectively were injected subcutaneous (s.c.) into the flank area of female Non-obese diabetic (NOD)/Severe combined immunodeficiency (SCID) mice which were purchased from Jackson Laboratory.

In another data set the test system is STAT3-regulated genes. Briefly: RT-PCR of STAT3-regulated genes in ALDH+/CD44+/CD24− cells. The data set is classed as cell-based, human. To be noted: 5 µM, 24 h. The procedure: The ALDH^+ and ALDH^+/CD44^+/CD24^− subpopulations of breast cancer cells were treated with LLL12 (5 µM) or DMSO for 24 h. RNA from the cells was then collected using RNeasy Kits (Qiagen). cDNA was constructed from a 500 ng sample of RNA using Omniscript RT (Qiagen). Primer sequences and source information can be found in Table S1. The intensity of bands was quantified and normalized to GAPDH.

Data set [2] relates to STAT3 target genes Cyclin D1, survivin, Bcl-2 and Twist1. Briefly: Expression of STAT3 target genes in un-separated breast cancer cells. The data set is classed as cell-based, human. Conditions: un-separated MDA-MB-231, SK-BR-3, SUM159 cells; 10 µM, 24 hours. The method, then:
LLL12 was synthesized in Dr. Pui-Kai Li’s laboratory (College of Pharmacy, The Ohio State University). Un-separated cells were treated with 10 µM of LLL12 or DMSO for 24 hours, and the phosphorylation of STAT3 (Y705), and ERK 1/2 (T202/Y204), and expression of STAT3 downstream genes, cleaved caspase-3, and PARP were detected by Western blots. (JPG) Click here for additional data file.

In a further data set the target is PI3K. The data set can be described thus: Kinase profiler assay, PI3K. The data set is classed as biochemical, human. To be noted: bound stated jointly for the other protein kinases; Table S3. The procedure:
(§1) The effects of LLL12 on twenty six purified human protein kinases were performed at the Millipore UK Limited (Dundee, UK) and Reaction Biology Corp. (Malvern, PA) using the Kinase profiler assay. Assays contained a peptide substrate, purified recombinant human protein kinases to be tested, and gamma-labeled ATP, magnesiumion. Radioactive phosphorylated product was measured and quantitated via a scintillation counter.

In data set [3] the test system is ALDH+ subpopulation of MDA-MB-231, SUM159, and SK-BR-3 cells. The data set can be described thus: Cleaved caspase-3 in ALDH+ cells. It is filed as cell-based, human. Conditions: LLL12 5 µmol/L 24 hours, ShRNA 48 hours then puromycin. The method, then: The ALDEFLUOR kit (StemCell Technologies) was used to isolate the population with high ALDH enzymatic activity as previously described. Briefly, cells were trypsinized to single cells using 0.05% trypsin and subsequently suspended in ALDEFLUOR assay buffer containing ALDH substrate (BAAA, 1 µmol/l per 1×10^6 cells) and then incubated for 40 minutes at 37°C. For each sample, an aliquot of cells was stained under identical conditions with 15 mmol/L diethylaminobenzaldehyde (DEAB), a specific ALDH inhibitor, as an ALDH^− control. Anti-human PE-CD24 and PE-Cy5-CD44 antibody (BioLegend) were used for CD44/CD24 identification and to separate ALDH^+/CD44^+/CD24^− and ALDH^−/CD44^+/CD24^+ cells when combined with ALDH staining. Analysis was performed using a FACStarPLUS (Becton Dickinion) flow cytometer. To assess the effect of STAT3 inhibitors on the subpopulation of ALDH^+ cells, un-separated breast cancer cells were treated with 5 µmol/L of LLL12 or 10 µmol/L Stattic for 24 hours prior to performing the ALDEFLUOR assay.
After sorting by flow cytometry, ALDH^+ and ALDH^+/CD44^+/CD24^− stem-like cells were cultured in serum-free stem cell medium in ultra-low attachment six-well plates (Corning) to maintain cancer stem cell characteristics. […]

For the next data set, the target named is Met (Homo sapiens, UniProt P08581). Briefly: Kinase profiler assay, Met. The data set is classed as biochemical. To be noted: bound stated jointly for the other protein kinases; Table S3. The method, then:
as §1

The test system of data set [4] is ALDH+ subpopulation from MDA-MB-231, SUM159, and SK-BR3 cells. The data set can be described thus: MTT cell viability assay, ALDH+ subpopulation. Conditions: 1 to 10 µmol/L 72 hours, ShRNA 48 hours. It is filed as cell-based, human. The procedure: The breast cancer cells were seeded in 96-well plates (3,000 cells/well) in triplicates in a serum-free mammary epithelial basal medium. The following day, cancer cells were treated with 1 to 10 µmol/L of LLL12 or Stattic for 72 hours, STAT3 ShRNA or control GFP shRNA lentivirus (CTL ShRNA) for 48 hours. MTT (Thiazolyl Blue Tetrazolium Bromide, Sigma-Aldrich) assay was used to determine the cell viability.

The conditions of data set [5]: 5 mg/kg IP daily; data not shown.

pIC50: −log10 of the molar value.

Chain of Met (P08581 25-1390): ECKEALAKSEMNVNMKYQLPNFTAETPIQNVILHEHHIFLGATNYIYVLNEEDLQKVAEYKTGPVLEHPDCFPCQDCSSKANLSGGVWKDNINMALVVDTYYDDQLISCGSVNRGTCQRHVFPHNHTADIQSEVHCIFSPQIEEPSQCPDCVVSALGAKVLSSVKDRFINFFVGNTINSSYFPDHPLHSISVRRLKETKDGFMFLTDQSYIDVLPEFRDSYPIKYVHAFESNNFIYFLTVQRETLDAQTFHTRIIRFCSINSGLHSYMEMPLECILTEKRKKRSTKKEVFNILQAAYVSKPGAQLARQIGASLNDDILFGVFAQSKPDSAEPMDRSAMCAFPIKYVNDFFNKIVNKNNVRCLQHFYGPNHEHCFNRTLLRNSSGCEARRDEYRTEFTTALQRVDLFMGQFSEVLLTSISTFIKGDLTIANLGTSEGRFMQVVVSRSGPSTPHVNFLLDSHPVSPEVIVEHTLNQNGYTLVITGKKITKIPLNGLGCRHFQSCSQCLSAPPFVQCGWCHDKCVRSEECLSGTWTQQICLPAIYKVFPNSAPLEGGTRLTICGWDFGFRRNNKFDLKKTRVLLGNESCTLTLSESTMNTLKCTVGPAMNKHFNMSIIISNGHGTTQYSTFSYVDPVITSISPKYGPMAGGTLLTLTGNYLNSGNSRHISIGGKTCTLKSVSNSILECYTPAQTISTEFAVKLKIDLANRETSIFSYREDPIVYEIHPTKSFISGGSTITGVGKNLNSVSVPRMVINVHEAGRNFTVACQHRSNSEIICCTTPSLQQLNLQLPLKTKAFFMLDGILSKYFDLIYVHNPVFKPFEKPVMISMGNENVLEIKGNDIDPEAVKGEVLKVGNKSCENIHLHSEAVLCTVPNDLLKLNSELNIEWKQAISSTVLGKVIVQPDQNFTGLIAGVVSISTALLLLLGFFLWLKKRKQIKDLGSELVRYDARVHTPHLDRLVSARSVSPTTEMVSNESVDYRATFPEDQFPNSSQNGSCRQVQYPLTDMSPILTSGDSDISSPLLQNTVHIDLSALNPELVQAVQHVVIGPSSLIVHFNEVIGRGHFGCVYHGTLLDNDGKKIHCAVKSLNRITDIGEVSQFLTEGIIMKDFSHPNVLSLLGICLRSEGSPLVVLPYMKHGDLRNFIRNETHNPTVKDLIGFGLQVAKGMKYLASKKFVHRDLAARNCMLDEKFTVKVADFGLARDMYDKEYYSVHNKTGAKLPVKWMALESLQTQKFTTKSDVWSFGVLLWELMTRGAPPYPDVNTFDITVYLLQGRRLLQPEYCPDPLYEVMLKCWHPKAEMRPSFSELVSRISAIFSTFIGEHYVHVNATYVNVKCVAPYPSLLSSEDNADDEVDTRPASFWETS

`NS(=O)(=O)c1cccc2c1C(=O)c1cccc(O)c1C2=O` [LLL12]: in data set [1] (15 days, P<0.05 vs vehicle), the tumor volume result is “significantly suppressed” and the tumor weight entry was “significantly suppressed”. For the same molecule, in data set [1] (Western blot of tumors), the “P-STAT3 in tumor tissue” value is “decreased” and the “cleaved caspase-3 in tumor tissue” value was “increased”. In addition, the “expression of Cyclin D1, survivin, Bcl-2, Bcl-XL and Notch1” value in the data set on STAT3-regulated genes is given as “down-regulated”. In data set [2], the “expression of STAT3 target genes Cyclin D1, survivin, Bcl-2 and Twist1” value is reported as “inhibited”. Besides, on PI3K, the pIC50 was no more than 4.11. Also, the “cleaved caspase-3 in ALDH+ cells” value in data set [3] is given as “induced cleaved caspase-3”. At Met, this molecule gave a pIC50 of no more than 4.11. Further, the “cell viability of the ALDH+ subpopulation” value in data set [4] is reported as “inhibit”. Moreover, the “body weight compared to vehicle control” value in data set [5] was “did not differ”.
